Literature values as cited in patent publication US20090105490A1, “Polymorphic forms of ramelteon and processes for preparation thereof” (priority 2007, published 2009).
Where two headings read alike, the source gives them in different places.

Legend:
MT3 receptor = conditions: MT1 and MT2 versus MT3
melatonin MT2 receptor = biological target: T1, melatonin MT2 receptor (Homo sapiens, UniProt P49286); conditions: melatonin receptor agonist
T1 sequence (P49286 1-362): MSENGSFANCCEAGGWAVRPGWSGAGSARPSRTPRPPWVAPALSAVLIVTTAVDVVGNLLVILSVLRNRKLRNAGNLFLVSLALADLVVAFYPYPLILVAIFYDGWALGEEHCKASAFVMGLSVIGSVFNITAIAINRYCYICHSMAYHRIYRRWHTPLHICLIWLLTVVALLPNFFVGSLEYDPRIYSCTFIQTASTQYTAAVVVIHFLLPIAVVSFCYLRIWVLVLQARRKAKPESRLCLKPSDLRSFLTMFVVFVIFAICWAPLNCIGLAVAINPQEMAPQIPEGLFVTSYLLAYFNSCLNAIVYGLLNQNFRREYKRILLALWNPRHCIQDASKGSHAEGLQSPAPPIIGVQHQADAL

melatonin MT1 receptor = melatonin MT1 receptor (Homo sapiens, UniProt P48039); conditions: melatonin receptor agonist
Sequence of melatonin MT1 receptor (P48039 whole entry): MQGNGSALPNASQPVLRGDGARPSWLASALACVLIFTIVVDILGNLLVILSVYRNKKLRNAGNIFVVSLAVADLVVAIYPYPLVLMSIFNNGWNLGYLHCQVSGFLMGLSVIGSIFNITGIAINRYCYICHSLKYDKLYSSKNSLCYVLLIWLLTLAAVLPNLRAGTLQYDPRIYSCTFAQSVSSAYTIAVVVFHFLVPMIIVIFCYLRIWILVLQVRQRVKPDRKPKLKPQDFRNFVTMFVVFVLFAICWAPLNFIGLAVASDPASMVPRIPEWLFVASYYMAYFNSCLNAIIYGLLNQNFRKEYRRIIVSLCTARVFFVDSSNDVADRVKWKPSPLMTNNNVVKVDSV

In the case of `CCC(=O)NCC[C@@H]1CCc2ccc3c(c21)CCO3` [Ramelteon, (S)-N-[2-(1,6,7,8-tetrahydro-2H-indeno-[5,4-b]furan-8-yl)ethyl]propionamide], the solubility (1-octanol) is listed as “freely soluble”, the solubility (DMSO) is listed as “freely soluble” and the solubility (aqueous buffers) is listed as “slightly soluble”. For the same molecule, the solubility (ethanol) was “freely soluble”, the solubility (methanol) was “freely soluble” and the solubility (water) was “slightly soluble”. For the same molecule, the “selectivity over the MT3 receptor” value (MT3 receptor) was “selectivity over the MT3 receptor”, the “affinity for melatonin MT2 receptor” value (melatonin MT2 receptor) was “high affinity” and the “affinity for melatonin MT1 receptor” value (melatonin MT1 receptor) was “high affinity”.
